The values that follow come from ChEMBL document CHEMBL4825682, “Discovery of novel purinylthiazolylethanone derivatives as anti-Candida albicans agents through possible multifaceted mechanisms” (Eur J Med Chem, 2021).

Series [1] in a line: Hemolytic activity in human RBC. It counts as cell-based, Erythrocyte. The conditions noted are these: human red blood cells (erythrocytes).
For series [2], the system named is Candida tropicalis. Nature of the series: Antifungal activity against Candida tropicalis assessed as fungal growth inhibition by CLSI protocol based microbroth dilution method. The series is classed as functional. For orientation: Dilution methods test growth across graded concentrations, often in twofold steps.
For series [3], the system named is Candida albicans. Nature of the series: Antifungal activity against Candida albicans assessed as fungal growth inhibition by CLSI protocol based microbroth dilution method. It counts as functional.
For series [4], the system named is Aspergillus fumigatus. Nature of the series: Antifungal activity against Aspergillus fumigatus assessed as fungal growth inhibition by CLSI protocol based microbroth dilution method. The series is classed as functional.
Series [5] concerns Candida albicans. Nature of the series: Antifungal activity against Candida albicans ATCC 90023 assessed as fungal growth inhibition by CLSI protocol based microbroth dilution method. It counts as functional.
Series [6] has as its system Candida parapsilosis. Description: Antifungal activity against Candida parapsilosis ATCC 22019 assessed as fungal growth inhibition by CLSI protocol based microbroth dilution method. The conditions noted are these: Lodderomyces parapsilosis. The series is classed as functional.
In series [7] the test system is Candida albicans. Description: Antifungal activity against Candida albicans measured after 8 passages. It counts as functional, organism-based.

In brackets after ≈: the same amount, converted by molar mass. Activity calls are given as the source filed them. The calls are words filed in the database; no cut-off is given here.

Usually HC50 stands for the concentration that lyses half of the red blood cells. Low values mean stronger haemolysis, high ones weaker haemolysis. The MIC is the lowest concentration that inhibits growth of the organism. As to `CCCCCCCCN1CCN(c2ncnc3c2ncn3CC(=O)c2nccs2)CC1`, in series [1], the 50% haemolytic concentration (HC50) was > 256 µg/mL. Besides, the MIC in series [2] amounted to 16 µg/mL (≈ 36.2 µM); in series [3] it was 2 µg/mL (≈ 4.53 µM); in series [4] it was 64 µg/mL (≈ 145 µM); in series [5], 256 µg/mL (≈ 580 µM); in series [6], 16 µg/mL (≈ 36.2 µM).
In the case of `O=C(Cn1cnc2c(N3CCN(CCO)CC3)ncnc21)c1nccs1`, the HC50 in series [1] was > 256 µg/mL. Besides, the MIC was 64 µg/mL (≈ 171 µM) in series [2]; 1 µg/mL (≈ 2.68 µM) in series [3]; 64 µg/mL (≈ 171 µM) in series [4]; 256 µg/mL (≈ 686 µM) in series [5]; 128 µg/mL (≈ 343 µM) in series [6].
On to `OC(Cn1cncn1)(Cn1cncn1)c1ccc(F)cc1F` [FLUCONAZOLE], for which the HC50 in series [1] was > 256 µg/mL. Besides, the minimal inhibitory concentration (MIC) in series [2] is 8 µg/mL (≈ 26.1 µM); in series [3], 4 µg/mL (≈ 13.1 µM); in series [4], 256 µg/mL (≈ 836 µM); in series [5], 2 µg/mL (≈ 6.53 µM); in series [6], 4 µg/mL (≈ 13.1 µM). Moreover, the outcome in series [7] was Active.
For `O=C(Cn1cnc2c(N3CCCC3)ncnc21)c1nccs1`, in series [1], the concentration for 50% haemolysis (HC50) was > 256 µg/mL. For the same compound, the MIC is 64 µg/mL (≈ 204 µM) in series [2]; 16 µg/mL (≈ 50.9 µM) in series [3]; 32 µg/mL (≈ 102 µM) in series [4]; 32 µg/mL (≈ 102 µM) in series [5]; 32 µg/mL (≈ 102 µM) in series [6].
As to `O=C(Cn1cnc2c(N3CCN(Cc4ccccc4Cl)CC3)ncnc21)c1nccs1`, the HC50 in series [1] is > 256 µg/mL. Further, the minimal inhibitory concentration (MIC) in series [2] turned out to be 256 µg/mL (≈ 564 µM); in series [3], 256 µg/mL (≈ 564 µM); in series [4], 64 µg/mL (≈ 141 µM); in series [5] it was 2 µg/mL (≈ 4.41 µM); in series [6], 256 µg/mL (≈ 564 µM).
As for `O=C(Cn1cnc2c(N3CCN(Cc4ccccc4F)CC3)ncnc21)c1nccs1`, the 50% haemolytic concentration (HC50) in series [1] is > 256 µg/mL. Also, the minimal inhibitory concentration (MIC) came out at 256 µg/mL (≈ 585 µM) in series [2]; 256 µg/mL (≈ 585 µM) in series [3]; 32 µg/mL (≈ 73.1 µM) in series [4]; 2 µg/mL (≈ 4.57 µM) in series [5]; 256 µg/mL (≈ 585 µM) in series [6].
Turning to `O=C(Cn1cnc2c(N3CCN(Cc4ccc(F)cc4)CC3)ncnc21)c1nccs1`, the HC50 in series [1] is > 256 µg/mL. Moreover, the minimal inhibitory concentration (MIC) is 64 µg/mL (≈ 146 µM) in series [2]; 32 µg/mL (≈ 73.1 µM) in series [3]; 32 µg/mL (≈ 73.1 µM) in series [4]; 256 µg/mL (≈ 585 µM) in series [5]; 256 µg/mL (≈ 585 µM) in series [6].
Take `O=C(Cn1cnc2c(N3CCN(Cc4ccc([N+](=O)[O-])cc4)CC3)ncnc21)c1nccs1`: the HC50 in series [1] is > 256 µg/mL. Besides, the MIC in series [2] turned out to be 64 µg/mL (≈ 138 µM); in series [3], 8 µg/mL (≈ 17.2 µM); in series [4] it was 32 µg/mL (≈ 68.9 µM); in series [5] it was 128 µg/mL (≈ 276 µM); in series [6], 64 µg/mL (≈ 138 µM).
Turning to `CC(C)N(C(=O)CN1CCN(c2ncnc3c2ncn3CC(=O)c2nccs2)CC1)C(C)C`, in series [1], the 50% haemolytic concentration (HC50) is > 256 µg/mL. Also, the MIC came to 8 µg/mL (≈ 17 µM) in series [2]; 4 µg/mL (≈ 8.5 µM) in series [3]; 32 µg/mL (≈ 68 µM) in series [4]; 16 µg/mL (≈ 34 µM) in series [5]; 32 µg/mL (≈ 68 µM) in series [6].
As for `CCOC(=O)CN1CCN(c2ncnc3c2ncn3CC(O)c2nccs2)CC1` (configuration not stated), the HC50 in series [1] was > 256 µg/mL. Moreover, the minimum inhibitory concentration (MIC) in series [2] was 64 µg/mL (≈ 153 µM); in series [3] it was 128 µg/mL (≈ 307 µM); in series [4], 32 µg/mL (≈ 76.6 µM); in series [5], 64 µg/mL (≈ 153 µM); in series [6] it was 128 µg/mL (≈ 307 µM).
In the case of `CCCCCCCCCCCCN1CCN(c2ncnc3c2ncn3CC(=O)c2nccs2)CC1`, the HC50 in series [1] is > 256 µg/mL. In addition, the MIC in series [2] was found to be 8 µg/mL (≈ 16.1 µM); in series [3], 4 µg/mL (≈ 8.04 µM); in series [4], 16 µg/mL (≈ 32.1 µM); in series [5], 16 µg/mL (≈ 32.1 µM); in series [6], 8 µg/mL (≈ 16.1 µM).
As to `C=CCN1CCN(c2ncnc3c2ncn3CC(=O)c2nccs2)CC1`, in series [1], the HC50 was > 256 µg/mL. Also, the minimum inhibitory concentration (MIC) in series [2] amounted to 32 µg/mL (≈ 86.6 µM); in series [3], 4 µg/mL (≈ 10.8 µM); in series [4] it was 64 µg/mL (≈ 173 µM); in series [5], 64 µg/mL (≈ 173 µM); in series [6] it was 8 µg/mL (≈ 21.7 µM).
Take `CCOC(=O)CN1CCN(c2ncnc3c2ncn3C/C(=N/OC)c2nccs2)CC1`: in series [1], the concentration for 50% haemolysis (HC50) is > 256 µg/mL. Also, the minimal inhibitory concentration (MIC) in series [2] was 64 µg/mL (≈ 144 µM); in series [3], 8 µg/mL (≈ 18 µM); in series [4], 32 µg/mL (≈ 72 µM); in series [5], 64 µg/mL (≈ 144 µM); in series [6], 128 µg/mL (≈ 288 µM).
Turning to `O=C(Cn1cnc2c(N3CCOCC3)ncnc21)c1nccs1`, the HC50 in series [1] was > 256 µg/mL. Also, the minimal inhibitory concentration (MIC) in series [2] is 32 µg/mL (≈ 96.9 µM); in series [3], 64 µg/mL (≈ 194 µM); in series [4] it was 64 µg/mL (≈ 194 µM); in series [5], 2 µg/mL (≈ 6.05 µM); in series [6] it was 2 µg/mL (≈ 6.05 µM).
For `CCCCCCCCCCCCCCCCCCN1CCN(c2ncnc3c2ncn3CC(=O)c2nccs2)CC1`, in series [1], the HC50 is > 256 µg/mL. For the same compound, the minimum inhibitory concentration (MIC) was 64 µg/mL (≈ 110 µM) in series [2]; 2 µg/mL (≈ 3.44 µM) in series [3]; 32 µg/mL (≈ 55 µM) in series [4]; 256 µg/mL (≈ 440 µM) in series [5]; 128 µg/mL (≈ 220 µM) in series [6].
Regarding `CCCCCCN1CCN(c2ncnc3c2ncn3CC(=O)c2nccs2)CC1`, the 50% haemolytic concentration (HC50) in series [1] was > 256 µg/mL. Further, the MIC in series [2] is 32 µg/mL (≈ 77.4 µM); in series [3], 4 µg/mL (≈ 9.67 µM); in series [4] it was 128 µg/mL (≈ 310 µM); in series [5] it was 16 µg/mL (≈ 38.7 µM); in series [6], 4 µg/mL (≈ 9.67 µM).
